The values below come from patent US11952330B2, “Antibiotic ammonium compounds and methods for the treatment of bacterial infections” (priority 2019, dated 2024).

The structures appear in SMILES notation. Where two headings read alike, the source gives them in different places.

The test system of one series is S. aureus. Briefly: MIC by broth dilution, S. aureus. As to conditions: for MIC: Staphylococcus aureus, Mueller-Hinton broth; for selectivity for Gram positive microbes over Gram negative microbes, in words: S. aureus vs A. baumannii. Type of series: cell-based. The procedure, abridged: (§1)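 Broth dilution in Mueller-Hinton broth with 2-fold compound steps over 1–256 μg/mL (final) and 5×10^5 CFU/mL inoculum, incubated overnight at 37 °C. The MIC is the lowest concentration without visible turbidity, from at least biological duplicates of technical triplicates. A parallel series was supplemented with 5% (final) human plasma.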

The test system of series [1] is A. baumannii. Briefly: MIC by broth dilution, A. baumannii. Type of series: cell-based. The note with it: Acinetobacter baumannii, Mueller-Hinton broth. The gist of the method: as §1
In general terms: Dilution methods test growth across graded concentrations, often in twofold steps.

Series [2] relates to A. baumannii. Briefly: MIC by broth dilution in presence of 5% human plasma (esterases), A. baumannii. Type of series: cell-based. The note with it: for Δ MIC A. baumannii + human plasma: broth supplemented with 5% human plasma (esterases) vs no plasma. The method, then: The antibacterial efficacy of ammonium compounds in the presence of human plasma was assessed. Minimum inhibitory concentrations (MICs) were determined by broth dilution method. Dilutions of each compound, ranging from 1 μg/mL to 256 μg/mL (final concentrations) were prepared in Mueller-Hinton broth. For the plasma containing samples, compound dilutions were made in Mueller-Hinton broth and supplemented with 5% (final %) human plasma (esterases). Compound dilutions were added to wells of a 96-well plate, with the concentration of the compound increasing 2-fold by row. Each well contained 5×10^5 CFU/mL of target bacterium in a total volume of 100 μL. Plates were incubated overnight at 37° C. The following day, plates were evaluated for a visual change in growth to determine the MIC. The concentration value corresponding to the first row that no longer had visible bacterial growth, as evaluated by turbidity in the wells, was recorded as the MIC. MIC values were representative of at least biological duplicates, each made up of technical triplicates.

Another series has as its system human red blood cell. Nature of the series: In vitro hemolysis assay. As to conditions: for % hemolysis at 16 μg/ml / % hemolysis at 32 μg/ml: human RBCs, 37° C., 1 hour; for hemolysis as compared to otilonium bromide (11), in words: 16 and 32 μg/mL; for reduction in hemolysis as compared to otilonium bromide (11): at 32 μg/mL. Type of series: cell-based. The method, then: The hemolytic potential of ammonium compounds were assessed in vitro. A human red blood cell solution (RBC) was prepared by washing 400 μL of fresh RBCs twice with 7 mL of 1×PBS (pH 7.4) by centrifugation at 4° C., 2500 rpm for 10 minutes. The precipitates were then resuspended in 4 mL of 1×PBS. Hemolysis testing was performed by mixing 500 μL of freshly prepared test compound solutions at a final concentration of both 16 μg/mL and 32 μg/mL in 1×PBS with 400 μL of the washed human RBCs. Two control samples were prepared by separately mixing 400 μL of washed RBCs with 500 μL of 1×PBS (negative control) and 1% Triton X-100 (w/v). After incubation in a water bath at 37° C. for 1 hour, the samples were centrifuged at 2500 rpm for 10 minutes. 300 μL of the supernatant were collected for measurement in a 96-well plate. The release of hemoglobin was assessed by measuring the absorbance of the samples at 540 nm using 1×PBS as the blank. Hemolysis percent was calculated using Equation 1: […]

Series [3] relates to enterotoxigenic Escherichia coli (ETEC). Nature of the series: Mouse assay, oral inoculation with ETEC, viable bacteria in intestines. The note with it: neonate CD-1 mice, 10^7 CFU oral, compound co-administered at 1 mg/kg, intestines harvested after 4 hours. Type of series: in vivo. The method, then: (§2) Mouse assays were used to evaluate the in vivo activity of compound 95. Male and female neonate CD-1 mice were orally innoculated with 10^7 colony forming units of enterotoxigenic Escherichia coli (ETEC) (FIG. 2A) or vancomycin-resistant enterococcus (VRE) (FIG. 2B) and co-administered compound 95 at 1 mg/kg. Intestines were harvested after 4 hours and plated to determine viable bacteria.

Series [4] relates to vancomycin-resistant enterococcus (VRE). Nature of the series: Mouse assay, oral inoculation with VRE, viable bacteria in intestines. Type of series: in vivo. The note with it: neonate CD-1 mice, 10^7 CFU oral, compound co-administered at 1 mg/kg, intestines harvested after 4 hours. As to the method:
as §2

Where [5] appears, read: no plasma, Table 2, read-out: MIC (μg/ml) S. aureus.
[6] abbreviates: overnight 37° C., Table 1, read-out: MIC (μg/mL) S. aureus.
Where [7] appears, read: no plasma, Table 2, read-out: MIC (μg/ml) A. baumannii.
Setting [8] is: overnight 37° C., Table 1, read-out: MIC (μg/mL) A. baumannii.

For the molecule `CCCCCCCCOc1ccccc1C(=O)Nc1ccc(C(=O)OCC[N+](C)(C)C)cc1.[Br-]` [Compound 11, N,N,N-Trimethyl-2-((4-(2-(octyloxy)benzamido)benzoyl)oxy)ethan-1-aminium bromide], the MIC with S. aureus (setting [5]), with S. aureus (setting [6]), with A. baumannii [1] (setting [7]) and with A. baumannii [1] (setting [8]) was 3 to 30 µg/mL in each case. In addition, the “Δ MIC A. baumannii + human plasma” value with A. baumannii [2] was found to be 8X. Moreover, the “% hemolysis at 16 μg/ml” value with human red blood cell came to 7%. Besides, the “% hemolysis at 32 μg/ml” value in the series on human red blood cell stood at 92%.

In the case of `CCCCCCCCOc1cccc(OCCCCCCCC)c1C(=O)Nc1ccc(C(=O)OCC[N+](C)(CC)CC)cc1.[Br-]` [Compound 17, 2-((4-(2,6-Bis(octyloxy)benzamido)benzoyl)oxy)-N,N-diethyl-N-methylethan-1-aminium bromide], the “antimicrobial activity against Gram positive S. aureus relative to otilonium bromide, in words” value in the series with S. aureus is on record as “comparable or better than the activity of otilonium bromide”. The “selectivity for Gram positive microbes over Gram negative microbes, in words” value in the series with S. aureus is given as “virtually complete selectivity for Gram positive microbes”. For the same molecule, the MIC in the series with S. aureus (setting [5]) is below 3 µg/mL; in the series with S. aureus (setting [6]), 3 to 30 µg/mL; in the series on A. baumannii [1] (setting [7]), above 30 µg/mL; in the series on A. baumannii [1] (setting [8]), above 30 µg/mL. For the same molecule, in the series with A. baumannii [2] (5% human plasma), the “stability in the presence of enzymes that are found in the gut, compared with otilonium bromide (11), in words” value is “better stability than otilonium bromide”. In the series on human red blood cell, the “% hemolysis at 16 μg/ml” value stood at 59%. Besides, the “% hemolysis at 32 μg/ml” value in the series with human red blood cell worked out at 90%. For the same molecule, in the series on human red blood cell, the “hemolysis as compared to otilonium bromide (11), in words” value is recorded as “reduced hemolysis as compared to otilonium bromide”.

Consider `CCCCCCOc1ccccc1C(=O)Nc1ccc(C(=O)OCC[N+](CC)(CC)CCCCC)cc1.[Br-]` [Compound 68, N,N-Diethyl-N-(2-((4-(2-(hexyloxy)benzamido)benzoyl)oxy)ethyl)pentan-1-aminium bromide], for which, in the series with S. aureus, the “antimicrobial activity against Gram positive S. aureus relative to otilonium bromide, in words” value is reported as “comparable or better than the activity of otilonium bromide” and the “selectivity for Gram positive microbes over Gram negative microbes, in words” value is “improved selective for Gram positive microbes over Gram negative microbes”. Moreover, in the series with S. aureus (setting [5]), the MIC was below 3 µg/mL. Further, in the series with S. aureus (setting [6]), the MIC is below 3 µg/mL. For the same molecule, the MIC with A. baumannii [1] (setting [7]) was in the range of 3 to 30 µg/mL. For the same molecule, in the series with A. baumannii [1] (setting [8]), the MIC fell in the range of 3 to 30 µg/mL. Besides, the “stability in the presence of enzymes that are found in the gut, compared with otilonium bromide (11), in words” value in the series on A. baumannii [2] (5% human plasma) is reported as “better stability than otilonium bromide”. Further, in the series on A. baumannii [2], the “Δ MIC A. baumannii + human plasma” value is reported as 8X. In the series on human red blood cell, the “% hemolysis at 16 μg/ml” value was 2%; the “% hemolysis at 32 μg/ml” value turned out to be 5%; the “hemolysis as compared to otilonium bromide (11), in words” value was “reduced hemolysis as compared to otilonium bromide”; the “reduction in hemolysis as compared to otilonium bromide (11)” value was 94%.

For `CCCCCCOc1cc(F)ccc1C(=O)Nc1ccc(S(=O)(=O)NCC[N+](CC)(CC)CCCCC)cc1.[Br-]` [Compound 94, N,N-Diethyl-N-(2-((4-(4-fluoro-2-(hexyloxy)benzamido)phenyl)sulfonamido)-ethyl)pentan-1-aminium bromide], the MIC in the series with S. aureus (setting [6]) and with A. baumannii [1] (setting [8]) was 3 to 30 µg/mL each time.

Consider `CCCCCCCOc1cc(F)ccc1C(=O)Nc1ccc(S(=O)(=O)NCC[N+](CC)(CC)CCCC)cc1.[Br-]` [Compound 95, N,N-Diethyl-N-(2-((4-(4-fluoro-2-(heptyloxy)benzamido)phenyl)sulfonamido)-ethyl)butan-1-aminium bromide], for which the “antimicrobial activity against Gram positive S. aureus relative to otilonium bromide, in words” value in the series with S. aureus is “comparable or better than the activity of otilonium bromide”. The MIC in the series with S. aureus (setting [5]), in the series on S. aureus (setting [6]), in the series with A. baumannii [1] (setting [7]) and in the series with A. baumannii [1] (setting [8]) was 3 to 30 µg/mL in each case. For the same molecule, the “stability in the presence of enzymes that are found in the gut, compared with otilonium bromide (11), in words” value in the series on A. baumannii [2] (5% human plasma) is reported as “better stability than otilonium bromide”. In addition, the increase in stability result in the series with A. baumannii [2] (5% human plasma, vs otilonium bromide (11)) is on record as “four- to eight-fold”. The “Δ MIC A. baumannii + human plasma” value in the series on A. baumannii [2] is 2X. Further, the “% hemolysis at 16 μg/ml” value in the series with human red blood cell amounted to 3%. The “% hemolysis at 32 μg/ml” value with human red blood cell stood at 14%. In the series with human red blood cell, the “hemolysis as compared to otilonium bromide (11), in words” value is on record as “reduced hemolysis as compared to otilonium bromide”. In addition, the “reduction in hemolysis as compared to otilonium bromide (11)” value in the series on human red blood cell was 85%. Further, the “viability and colonization of ETEC in intestines” value in series [3] was “significantly decreased viablity and colonization”. Besides, the “viability and colonization of VRE in intestines” value in series [4] was “significantly decreased viablity and colonization”.

For the molecule `CCCC(CCC)Oc1ccccc1C(=O)Nc1ccc(C(=O)OCC[N+](C)(CC)CC)cc1.[Br-]` [Compound 96, N,N-Diethyl-2-((4-(2-(heptan-4-yloxy)benzamido)benzoyl)oxy)-N-methylethan-1-aminium bromide], the MIC in the series with S. aureus (setting [6]) was 3 to 30 µg/mL; in the series on A. baumannii [1] (setting [8]), above 30 µg/mL.

For `CC[N+](C)(CC)CCOC(=O)c1ccc(NC(=O)c2ccccc2OCCCCC(C)C)cc1.[Br-]` [Compound 97, N,N-Diethyl-N-methyl-2-((4-(2-((5-methylhexyl)oxy)benzamido)benzoyl)oxy)-ethan-1-aminium bromide], the MIC with S. aureus (setting [6]) is 3 to 30 µg/mL; in the series with A. baumannii [1] (setting [8]), above 30 µg/mL.

For `CC[N+](C)(CC)CCOC(=O)c1ccc(NC(=O)c2ccccc2OC2CCC(C)CC2)cc1.[Br-]` (stereo not drawn) [Compound 98, N,N-Diethyl-N-methyl-2-((4-(2-(((1s,4s)-4-methylcyclohexyl)oxy)benzamido)-benzoyl)oxy)ethan-1-aminium bromide], the MIC with S. aureus (setting [6]) and in the series on A. baumannii [1] (setting [8]) was above 30 µg/mL throughout.
